The values that follow come from US12479816B2, “20-HETE formation inhibitors” (UNIVERSITY OF PITTSBURGH—OF THE COMMONWEALTH SYSTEM OF …, priority 2019, dated 2025).

Data set [1] is described as follows: Turbidometric solubility determination. The format is physicochemical. To be noted: PBS with 1% DMSO, aqueous buffer, kinetic from dmso stock, room temperature, OD620, read-out: Max Solub. The protocol: Solubility determinations shown in Table 3 were obtained turbidometrically and in a manner similar to the one described in Perez et al., J. Biomol. Screen, 2015, 20(2), 254-64. The method requires small volumes of 100× stock concentration drug solution to be prepared in DMSO 0, 0.23, 0.47, 0.94, 1.88, 3.75, 7.5, 15.0, 30.0 and […]. The stock drug concentrations are then diluted 1:100 added into triplicate wells containing PBS in a clear bottom 384 well microtiter to achieve final testing concentrations of 0, 2.3, 4.7, 9.4, 18.8, 37.5, 75, 150, 300, 600 μM in 1% DMSO. The plate is allowed to equilibrate with constant shaking for 2 hours at room temperature. The plate is then placed in a SpectroMax V plate reader to measure absorbance at 620 nm. Increase in absorbance is evident in test wells which precipitation of the compound is evident. The plot of OD620 vs. drug concentration is used to calculate the maximum solubility limit as determined by a statistically significant increase in absorbance above the background levels.

The subject of data set [2] is 20-HETE formation (CYP4) in RLM. Description: Inhibition of 20-HETE formation at 250 or 500 nM in RLM microsomal incubations. It counts as biochemical, rat. To be noted: 500 nM compound; RLM 300 μg/ml. The protocol:
(§1) To screen the inhibitory effects against 20-HETE formation, compounds were screened in HLM, RLM, RKM and rCYP4F2 microsomal incubations. Compounds dissolved in either 100% methanol or 100% DMSO to yield 10 mM stock solution. Microsomal incubations containing HLM, RLM, RKM (300 μg/ml) or rCYP4F2 (25 pmol/mL), AA (100 μM), NADPH (1 mM) treated with test compounds at various concentrations (500 nM or 250 nM) in a 1 ml total volume in incubation buffer (0.12 M potassium phosphate buffer containing 5 mM magnesium chloride). Reaction was started by adding NADPH to the incubates and was carried out at 37° C. in a shaking water bath for 20 min. Reaction was stopped by placing tubes on ice, followed by adding 125 μl 20-HETE-d6 as internal standard to each sample. Microsomal incubations were extracted with 3 ml ethyl ether twice, dried down under nitrogen gas and reconstituted in 125 μl 80:20 methanol:deionized H2O for analysis. 20-HETE formation was quantified using a validated UPLC-MS/MS assay and normalized by vehicle group. Each compound had three replications (n=3). Vehicle group was used as control to calculate percentage of 20-HETE formation rate. HET0016 (250 nM) was used as positive control. Incubates without NADPH group served as the negative control. An Acquity ultra performance LC autosampler (Waters, Milford, MA) was used to isolate 20-HETE on an UPLC BEH C18, 1.7 μm (2.1×100 mm) reversed-phase column (Waters, Milford, MA) protected by a guard column (2.1×5 mm; Waters, Milford, MA) of the same packing material. Column temperature was maintained at 55° C. Mobile phases consisted of 0.005% acetic acid, 5% acetonitrile in deionized water (A) and 0.005% acetic acid in acetonitrile (B). The flow rate for mobile phases is 0.5 ml/min. The initial mixture of mobile phase was 65:35 of A and B. Mobile phase B increased at 0.4 minutes after injection from 35% to 70% in a linear gradient over 4 minutes, and again increased to 95% over 0.5 minutes where it remained for 0.3 minutes. This was followed by a linear return to initial conditions over 0.1 minutes with a 1.5 minute pre-equilibration period prior to the next sample run. Total run time was 6.4 minutes for each injection. Injection volumes were 7.5 μl. Mass spectrometric analysis was carried out using a TSQ Quantum Ultra (Thermo Fisher Scientific, San Jose, CA) triple quadrupole mass spectrometer using heated electrospray ionization (HESI). Mass spectrometer was operated in negative selective reaction monitoring (SRM) mode with unit resolutions at both Q1 and Q3 set at 0.70 Da full width at half maximum. Scan time was set at 0.01 s and collision gas pressure was 1.3 mTorr. Quantitation of 20-HETE by SRM was performed by monitoring the m/z. Analytical data was acquired and analyzed using Xcaliber 3.0 data system (ThermoFinnigan, San Jose, CA).

A further data set addresses T1, rCYP4F2 (Homo sapiens, UniProt P78329).
T1 sequence (P78329 5-520): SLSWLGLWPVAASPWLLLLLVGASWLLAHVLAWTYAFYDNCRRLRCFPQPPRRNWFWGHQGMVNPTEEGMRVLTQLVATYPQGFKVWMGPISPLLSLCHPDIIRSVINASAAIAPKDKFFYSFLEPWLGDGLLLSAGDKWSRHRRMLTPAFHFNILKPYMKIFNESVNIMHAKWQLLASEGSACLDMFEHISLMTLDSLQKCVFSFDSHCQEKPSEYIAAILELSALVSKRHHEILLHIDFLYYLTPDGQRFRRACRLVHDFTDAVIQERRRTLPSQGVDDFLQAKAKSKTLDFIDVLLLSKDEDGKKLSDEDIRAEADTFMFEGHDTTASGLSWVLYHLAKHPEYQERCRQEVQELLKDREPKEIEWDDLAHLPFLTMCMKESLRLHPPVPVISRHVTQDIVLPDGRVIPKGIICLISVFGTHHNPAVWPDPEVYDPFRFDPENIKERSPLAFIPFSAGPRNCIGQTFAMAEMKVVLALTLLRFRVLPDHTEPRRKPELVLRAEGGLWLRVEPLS
Description: Inhibition of 20-HETE formation at 250 or 500 nM in rCYP4F2 incubations. To be noted: 500 nM compound; rCYP4F2 25 pmol/mL; read-out: rCYP4F2 % inh. @ 500 nM. The format is biochemical. The protocol: as §1

Data set [3] deals with 20-HETE formation (CYP4) in HLM. Description: Inhibition of 20-HETE formation at 250 or 500 nM in HLM microsomal incubations. To be noted: 500 nM compound; HLM 300 μg/ml, AA 100 μM, 20 min. The format is biochemical, human. As to the method: as §1

Converted amounts (≈) assume the structure as drawn.

Take `O=C1CCCN1Cc1ccc(C2CCN(c3ccn[nH]3)CC2)cc1F` [Compound 110, 1-(4-(1-(1H-Pyrazol-5-yl)piperidin-4-yl)-2-fluorobenzyl)pyrrolidin-2-one]: the solubility at 2 h in data set [1] worked out at 421 µM (≈ 144 µg/mL). Further, the “RLM % inh. @ 500 nM” value in data set [2] worked out at 63.60%. In addition, at rCYP4F2, the inhibition at 0.5 µM amounted to 84.1%. For the same compound, in data set [3], the “HLM % inh. @ 500 nM” value stood at 80.4%.
The matching figures for `O=S(=O)(Nc1ccc(C2CCN(c3cn[nH]c3)CC2)cc1)C1CC1` [Compound 114, N-(4-(1-(1H-pyrazol-4-yl)piperidin-4-yl)phenyl)cyclopropanesulfonamide]: 74 µM (≈ 25.6 µg/mL), 36.70%, 87.4% and 68.7%.
As for `COc1ccc(C2CCN(c3cn[nH]c3)CC2)c(Cl)c1` [Compound 65, 4-(2-Chloro-4-methoxyphenyl)-1-(1H-pyrazol-4-yl)piperidine], the solubility at 2 h in data set [1] came out at 18.7 µM (≈ 5.46 µg/mL). Besides, the “RLM % inh. @ 500 nM” value in data set [2] worked out at 0.00%. In addition, the inhibition at 0.5 µM on rCYP4F2 is 35%. In addition, the “HLM % inh. @ 500 nM” value in data set [3] came to 57.00%.
`Cl.O=C1CCCN1c1ccc(C2CCN(c3cn[nH]c3)CC2)cc1` [Compound 119, 1-(4-(1-(1H-Pyrazol-4-yl)piperidin-4-yl)phenyl)pyrrolidin-2-one hydrochloride]: the solubility at 2 h in data set [1] is 63 µM.
`O=C1COCCN1c1ccc(C2CCN(c3cn[nH]c3)CC2)cc1` [Compound 122, 4-(4-(1-(1H-Pyrazol-4-yl)piperidin-4-yl)phenyl)morpholin-3-one]: the solubility at 2 h in data set [1] came to 247 µM (≈ 80.7 µg/mL).
On the same count and under the same terms, under `Fc1cc(C2CCN(c3cn[nH]c3)CC2)ccc1N1CCOCC1` [Compound 123, 4-(4-(1-(1H-Pyrazol-4-yl)piperidin-4-yl)-2-fluorophenyl)morpholine] stands 85.5 µM (≈ 28.2 µg/mL).
The same measure, in the same setting: for `C[C@@H](c1ccc(C2CCN(c3cn[nH]c3)CC2)cc1)N1CCCC1=O` [Compound 126, (S)-1-(1-(4-(1-(1H-pyrazol-4-yl)piperidin-4-yl)phenyl)ethyl)pyrrolidin-2-one] the value was more than 600 µM; for `COc1ccc(CC2CCN(c3cn[nH]c3)CC2)cc1` [Compound 127, 4-[(4-Methoxyphenyl)methyl]-1-(1H-pyrazol-4-yl)piperidine], 151 µM (≈ 41 µg/mL).
For the compound `O=S1(=O)CCc2cc(C3CCN(c4cn[nH]c4)CC3)ccc21` [Compound 102, 5-(1-(1H-Pyrazol-4-yl)piperidin-4-yl)-2,3-dihydrobenzo[b]thiophene 1,1-dioxide], in data set [2], the “RLM % inh. @ 500 nM” value is listed as 0.00%. The inhibition at 0.5 µM on rCYP4F2 is 27.9%. In data set [3], the “HLM % inh. @ 500 nM” value turned out to be 36.50%.
The matching figures for `O=S1(=O)CCc2cc(C3CCN(c4ccn[nH]4)CC3)ccc21` [Compound 106, 5-(1-(1H-Pyrazol-5-yl)piperidin-4-yl)-2,3-dihydrobenzo[b]thiophene 1,1-dioxide]: 0.00%, 0% and 0.00%.
On to `FC(F)(F)c1ccnc(C2CCN(c3ccn[nH]3)CC2)c1` [Compound 87, 2-(1-(1H-Pyrazol-5-yl)piperidin-4-yl)-4-(trifluoromethyl)pyridine], for which the “RLM % inh. @ 500 nM” value in data set [2] is recorded as 2.70%. Besides, the inhibition at 0.5 µM at rCYP4F2 was determined as 7.4%. Besides, the “HLM % inh. @ 500 nM” value in data set [3] came out at 15.6%.
On to `O=C(c1ccc(C2CCN(c3cn[nH]c3)CC2)cc1)N1CCCC1` [Compound 77, (4-(1-(1H-Pyrazol-4-yl)piperidin-4-yl)phenyl)(pyrrolidin-1-yl)methanone], for which the “RLM % inh. @ 500 nM” value in data set [2] was 13.80%. Besides, the inhibition at 0.5 µM on rCYP4F2 came out at 55%. In addition, in data set [3], the “HLM % inh. @ 500 nM” value was 84.4%.
The matching figures for `Clc1cccc(CC2CCN(c3ccn[nH]3)CC2)c1` [Compound 91, 4-(3-Chlorobenzyl)-1-(1H-pyrazol-5-yl)piperidine]: 0.00%, 39.1% and 40.4%.
On to `c1cc(C2CCN(c3cn[nH]c3)CC2)ccc1CN1CCOCC1` [Compound 121, 4-(4-(1-(1H-Pyrazol-4-yl)piperidin-4-yl)benzyl)morpholine], for which the solubility at 2 h in data set [1] is 122 µM (≈ 39.9 µg/mL).
Still for that read-out and setting: for `O=C1CCCN1Cc1ccc(C2CCN(c3cn[nH]c3)CC2)c(F)c1` [Compound 118, 1-(4-(1-(1H-Pyrazol-4-yl)piperidin-4-yl)-3-fluorobenzyl)pyrrolidin-2-one] the value was 443 µM (≈ 152 µg/mL); for `C[C@H](c1ccc(C2CCN(c3cn[nH]c3)CC2)cc1)N1CCCC1=O` [Compound 125, (R)-1-(1-(4-(1-(1H-pyrazol-4-yl)piperidin-4-yl)phenyl)ethyl)pyrrolidin-2-one], more than 600 µM.
As for `c1cnc(SC2CCN(c3cn[nH]c3)CC2)nc1` [Compound 88, 2-((1-(1H-Pyrazol-4-yl)piperidin-4-yl)thio)pyrimidine], the “RLM % inh. @ 500 nM” value in data set [2] amounted to 0.00%. Also, the inhibition at 0.5 µM on rCYP4F2 is 26.4%. For the same compound, the “HLM % inh. @ 500 nM” value in data set [3] stood at 39.8%.
The matching figures for `Clc1cccc(CC2CCN(c3cn[nH]c3)CC2)c1` [Compound 90, 4-(3-chlorobenzyl)-1-(1H-pyrazol-4-yl)piperidine]: 20.80%, 70.3% and 67%.
The matching figures for `O=S(=O)(c1ccc(C2CCN(c3cn[nH]c3)CC2)cc1)N1CCCC1` [Compound 85, 1-(1H-Pyrazol-4-yl)-4-(4-(pyrrolidin-1-ylsulfonyl)phenyl)piperidine]: 0.00%, 64% and 81.3%.
As for `Fc1cc(N2CCOCC2)ccc1C1CCN(c2cn[nH]c2)CC1` [Compound 124, 4-(4-(1-(1H-Pyrazol-4-yl)piperidin-4-yl)-3-fluorophenyl)morpholine], in data set [1], the solubility at 2 h was 26.6 µM (≈ 8.79 µg/mL).
Turning to `COc1ccccc1C1CCN(c2cn[nH]c2)CC1` [Compound 22, 4-(2-Methoxyphenyl)-1-(1H-pyrazol-4-yl)piperidine], the “RLM % inh. @ 500 nM” value in data set [2] worked out at 0.00%. For the same compound, the inhibition at 0.5 µM on rCYP4F2 is 0%. For the same compound, the “HLM % inh. @ 500 nM” value in data set [3] was 0.00%.
Regarding `O=C(c1ccc(C2CCN(c3ccn[nH]3)CC2)c(F)c1)N1CCCC1` [Compound 82], the “RLM % inh. @ 500 nM” value in data set [2] is 2.00%. For the same compound, the inhibition at 0.5 µM at rCYP4F2 was 36%. Further, the “HLM % inh. @ 500 nM” value in data set [3] was 75%.
